The values that follow come from patent US20210228545A1, “METHODS OF TREATING CONDITIONS RELATED TO THE S1P1 RECEPTOR” (Arena Pharmaceuticals, Inc., priority 2018, published 2021).

In one data set the target is T1, MATE1 (Homo sapiens, UniProt Q96FL8).
T1 construct: expressed in transfected cells; host or cells: HEK293
The experiment in a line: Transporter inhibition, HEK293 cells. The data set is classed as in vitro ADME.

The target of data set [1] is T2, OCT2 (Homo sapiens, UniProt O15244).
T2 construct: expressed in transfected cells; host or cells: HEK293
T2 sequence (O15244 1-555): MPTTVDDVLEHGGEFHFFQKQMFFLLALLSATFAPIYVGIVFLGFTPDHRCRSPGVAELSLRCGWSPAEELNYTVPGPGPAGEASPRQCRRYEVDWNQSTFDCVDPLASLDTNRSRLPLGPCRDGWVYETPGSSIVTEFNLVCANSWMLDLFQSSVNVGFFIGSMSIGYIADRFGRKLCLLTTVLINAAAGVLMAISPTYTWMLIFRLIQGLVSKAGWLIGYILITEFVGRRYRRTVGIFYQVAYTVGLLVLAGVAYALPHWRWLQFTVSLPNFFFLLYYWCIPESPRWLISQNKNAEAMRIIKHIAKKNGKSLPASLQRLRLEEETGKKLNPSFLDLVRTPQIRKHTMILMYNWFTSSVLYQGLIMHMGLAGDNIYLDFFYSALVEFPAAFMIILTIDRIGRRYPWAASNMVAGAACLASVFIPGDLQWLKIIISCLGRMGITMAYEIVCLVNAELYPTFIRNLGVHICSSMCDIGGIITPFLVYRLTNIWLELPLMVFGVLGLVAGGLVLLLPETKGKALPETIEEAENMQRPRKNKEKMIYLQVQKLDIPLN
Nature of the data set: Transporter inhibition, HEK293 cells. It is filed as in vitro ADME. The settings on record: [14C]-metformin (10 μM), 1 and 10 μM tested.

For data set [2] the following is noted: male Sprague-Dawley rats; cited from earlier work.
The target in data set [3] is T3, P-gp (Homo sapiens, UniProt P08183).
T3 sequence (P08183 whole entry): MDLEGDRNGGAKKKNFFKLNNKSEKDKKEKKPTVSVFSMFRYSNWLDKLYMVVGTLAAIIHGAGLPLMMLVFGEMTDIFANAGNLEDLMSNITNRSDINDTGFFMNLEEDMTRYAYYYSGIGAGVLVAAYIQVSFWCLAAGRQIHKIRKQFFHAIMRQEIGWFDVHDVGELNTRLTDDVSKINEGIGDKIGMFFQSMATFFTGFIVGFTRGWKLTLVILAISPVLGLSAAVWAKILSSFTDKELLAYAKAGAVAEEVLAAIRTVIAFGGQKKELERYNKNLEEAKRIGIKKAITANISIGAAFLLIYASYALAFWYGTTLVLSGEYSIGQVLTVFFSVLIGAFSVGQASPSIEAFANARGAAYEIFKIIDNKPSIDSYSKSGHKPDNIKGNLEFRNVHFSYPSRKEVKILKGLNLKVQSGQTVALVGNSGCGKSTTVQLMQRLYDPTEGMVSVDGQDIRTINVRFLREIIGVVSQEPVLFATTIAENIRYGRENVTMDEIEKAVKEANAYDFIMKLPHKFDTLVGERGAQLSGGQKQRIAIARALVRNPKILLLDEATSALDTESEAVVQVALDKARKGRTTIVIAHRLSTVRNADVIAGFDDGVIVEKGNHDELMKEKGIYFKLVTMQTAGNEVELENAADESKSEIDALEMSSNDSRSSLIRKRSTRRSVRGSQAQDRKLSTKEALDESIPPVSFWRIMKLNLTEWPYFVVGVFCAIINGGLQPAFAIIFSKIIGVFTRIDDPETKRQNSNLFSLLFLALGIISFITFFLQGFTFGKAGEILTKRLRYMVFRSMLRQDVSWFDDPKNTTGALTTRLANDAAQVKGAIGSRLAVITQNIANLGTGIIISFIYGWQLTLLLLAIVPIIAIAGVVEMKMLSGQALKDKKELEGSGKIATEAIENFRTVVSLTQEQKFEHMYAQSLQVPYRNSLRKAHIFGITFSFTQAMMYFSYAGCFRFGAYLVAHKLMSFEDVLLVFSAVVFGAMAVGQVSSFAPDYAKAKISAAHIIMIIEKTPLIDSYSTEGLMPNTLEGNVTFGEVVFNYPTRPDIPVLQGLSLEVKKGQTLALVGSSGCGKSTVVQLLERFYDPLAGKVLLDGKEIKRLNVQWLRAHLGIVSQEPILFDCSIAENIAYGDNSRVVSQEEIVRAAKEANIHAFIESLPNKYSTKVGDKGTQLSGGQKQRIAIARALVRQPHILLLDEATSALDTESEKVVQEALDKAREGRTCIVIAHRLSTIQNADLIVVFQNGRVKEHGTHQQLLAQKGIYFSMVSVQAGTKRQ
In data set [4] the target is T3, P-gp. The experiment in a line: Transporter inhibition, Caco-2 cells. (Caco-2 monolayers are a common model of the intestinal barrier.)
Data set [5] deals with peripheral blood lymphocyte (PBL) counts. Nature of the data set: Phase 1 single dosing study: peripheral blood lymphocyte counts. It is filed as in vivo, human. The protocol:
Compound 1 was administered as the L-arginine salt.
There were no other clinically significant safety issues with respect to vital signs, ECGs, pulmonary function tests, ophthalmoscopy, or clinical laboratory tests with the exception of expected pharmacological effects on peripheral blood lymphocyte counts. Dosing at the 3 and 5 mg induced a dose responsive decline in the absolute number of peripheral blood B cells, T cells, NK cells, and all T cell subsets except TEM cells. Total peripheral blood lymphocyte (PBL) counts were reduced by 2-4 hours after dosing, reaching a nadir by hour 8 which persisted for 24 hours with recovery to baseline over the next 4 days. PBL counts were reduced by ˜40% and ˜55% at the 3 mg and 5 mg dose levels. […] These findings are therefore consistent with the anticipated pharmacodynamic effects of S1P receptor agonists in preclinical studies and in humans (Gergely et al., Br Pharmacol 167(5):1035-1047, 2012; Brossard et al., Br J Clin Pharmacol 2013 April 18. doi:10.1111/bcp.12129. [Epub ahead of print] PubMed PMID: 23594176, and Kovarik et al., J Clin Pharmacol 44(5):532-537, 2004.)

In another data set the test system is CYP enzymes. Nature of the data set: Metabolism-dependent inhibition of CYP enzymes in human liver microsomes. It is filed as in vitro ADME. To be noted: 30 min preincubation with NADPH-regenerating system. From the text: Known metabolism-dependent and/or direct inhibitors of CYP and UGT enzymes were included as positive controls, as applicable.
Data set [6] concerns the target T3, P-gp. The experiment in a line: Transporter substrate evaluation, MDCKII-P-gp cells. It is filed as in vitro ADME. More on the design: expressed in transfected cells; host or cells: MDCKII (Madin-Darby canine kidney) cells.
In data set [7] the target is T2, OCT2. The experiment in a line: Transporter substrate evaluation, HEK293 cells. It is filed as in vitro ADME. To be noted: 1 and 10 μM.
The next data set addresses T4, OCT1 (Homo sapiens, UniProt O15245).
T4 construct: expressed in transfected cells; host or cells: HEK293
T4 sequence (O15245 1-554): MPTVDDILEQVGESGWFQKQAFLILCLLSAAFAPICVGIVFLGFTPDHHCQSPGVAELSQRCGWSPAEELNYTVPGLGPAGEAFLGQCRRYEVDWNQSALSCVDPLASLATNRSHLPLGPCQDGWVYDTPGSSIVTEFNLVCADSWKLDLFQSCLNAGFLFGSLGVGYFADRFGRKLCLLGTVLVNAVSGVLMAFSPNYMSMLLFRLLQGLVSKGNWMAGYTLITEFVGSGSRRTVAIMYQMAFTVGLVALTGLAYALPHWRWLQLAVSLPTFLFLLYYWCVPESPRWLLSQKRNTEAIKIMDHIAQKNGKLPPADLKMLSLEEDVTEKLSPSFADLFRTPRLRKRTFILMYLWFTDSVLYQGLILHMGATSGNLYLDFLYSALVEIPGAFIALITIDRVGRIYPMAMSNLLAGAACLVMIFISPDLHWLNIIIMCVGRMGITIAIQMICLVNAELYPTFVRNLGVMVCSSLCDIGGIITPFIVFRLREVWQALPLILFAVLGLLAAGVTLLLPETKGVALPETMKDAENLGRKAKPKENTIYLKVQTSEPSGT
The experiment in a line: Transporter inhibition, HEK293 cells. It is filed as in vitro ADME.

T1 sequence (Q96FL8 whole entry): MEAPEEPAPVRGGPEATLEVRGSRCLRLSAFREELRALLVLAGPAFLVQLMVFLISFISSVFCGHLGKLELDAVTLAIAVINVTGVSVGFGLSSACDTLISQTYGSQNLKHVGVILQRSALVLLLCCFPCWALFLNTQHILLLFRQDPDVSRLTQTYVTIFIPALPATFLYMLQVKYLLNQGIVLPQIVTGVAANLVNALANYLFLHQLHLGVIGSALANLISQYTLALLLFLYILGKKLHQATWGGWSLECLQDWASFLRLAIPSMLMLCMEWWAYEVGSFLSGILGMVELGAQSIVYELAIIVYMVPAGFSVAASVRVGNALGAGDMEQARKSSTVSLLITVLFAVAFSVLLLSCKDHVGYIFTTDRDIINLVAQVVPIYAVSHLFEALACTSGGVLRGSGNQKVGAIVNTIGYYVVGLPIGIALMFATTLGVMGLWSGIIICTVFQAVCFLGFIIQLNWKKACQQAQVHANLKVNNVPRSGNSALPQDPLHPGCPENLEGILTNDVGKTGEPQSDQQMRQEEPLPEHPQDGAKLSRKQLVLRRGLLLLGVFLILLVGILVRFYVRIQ

For the molecule `O=C(O)C[C@H]1CCc2c1[nH]c1ccc(OCc3ccc(C4CCCC4)c(C(F)(F)F)c3)cc21` [Compound 1, (R)-2-(7-(4-cyclopentyl-3-(trifluoromethyl)benzyloxy)-1,2,3,4-tetrahydrocyclopenta[b]indol-3-yl)acetic acid], the IC50 (in general, the concentration that inhibits the measured activity by half) was > 10 µM against MATE1 (HEK293 cells, [14C]-metformin (10 μM), 1 and 10 μM tested); > 10 µM on OCT2 [1]; ~100 µM against P-gp [3]; > 10 µM on OCT1 (HEK293 cells, [14C]-tetraethylammonium bromide (5 μM), 1 and 10 μM tested). In addition, at MATE1 (up to 10 μM), the “Inhibition of MATE1” value was “less than 50%”. The Bradycardia entry in data set [2] is on record as “no or substantially no bradycardia”. The P-gp inhibition result at P-gp [4] (10 μM Compound 1) is “no P-gp inhibition”. Moreover, on P-gp [4] (100 μM Compound 1), the “Reduction of efflux ratio of digoxin (10 μM) across Caco-2 cells” value amounted to 50%. Moreover, the “Reduction of PBL counts” value in [5] (3 mg single dose) is ~40%; in [5] (5 mg single dose), ~55%. Further, the “Time after dosing by which total PBL counts were reduced” value in data set [5] (3 and 5 mg) was 2 to 4 h. For the same molecule, the “Time of PBL nadir” value in data set [5] (3 and 5 mg, persisted for 24 hours) is ≤ 8 h. The “Recovery of PBL counts to baseline” value in data set [5] (after nadir) worked out at 4 days. Besides, the “Metabolism-dependent inhibition of CYPs” value in the data set with CYP enzymes is “little or no evidence of metabolism-dependent inhibition”. Also, the efflux ratio (as a rule, a quotient of directional permeabilities that is used to spot active efflux) at 1 μM at P-gp [6] (MDCK-MDR1, 1 μM) stood at 1.12. Also, the efflux ratio at 10 μM at P-gp [6] (MDCK-MDR1, 10 μM) came out at 3.17. At P-gp [6] (MDCK-MDR1, MDCKII-P-gp assay), this molecule returned a recovery of 18 to 60%. Further, on OCT2 [7] (HEK293 cells), the “Potential substrate of OCT2” value was “not a substrate of OCT2 and not a substrate and No”. Moreover, the “Uptake ratio into OCT2-expressing cells” value at OCT2 [7] (absence and presence of quinidine (300 μM)) is recorded as “below two”. Besides, the “Reduction of uptake rate of tetraethylammonium bromide into OCT1-expressing cells (inhibition)” value at OCT1 (1 and 10 μM) is listed as “less than 50%”.
